In general, EC50 refers to the concentration at which the effect is half-maximal.

Data on five compounds can be found in patent publication US11566057B2, “Long-acting co-agonists of the glucagon and GLP-1 receptors” (Merck Sharp & Dohme Corp., priority 2017, dated 2023).

Like-named read-outs stand apart in the source and are kept apart here. Numbered stars: 1 amine (or outer) side, 2 acyl side, 3 side chain; on linkers, the order of the positions; unused ones are H or OH. Square brackets hold non-standard residues; d marks the D form. Side chains are listed from the residue outwards. Peptide text beside a SMILES is read from it. * marks the point of attachment. C20 diacid = O=C(O)CCCCCCCCCCCCCCCCCCC(=O)*; Phe(4-CH2NH2) = NCc1ccc(C[C@H](N)C(=O)O)cc1; C18 diacid = O=C(O)CCCCCCCCCCCCCCCCC(=O)*; γGlu = O=C(O)[C@H](CCC(=O)[*:2])N[*:1]; Met(O2) = CS(=O)(=O)CC[C@H](N)C(=O)O; αMeF = C[C@](N)(Cc1ccccc1)C(=O)O; αMeD = C[C@](N)(CC(=O)O)C(=O)O; AEEA = NCCOCCOCC(=O)O; Aib = CC(C)(N)C(=O)O

One test concerns the target T1, human GLP1R (Homo sapiens, UniProt P43220).
T1 construct: expressed in transfected cells; growth medium holds Blasticidin and Hygromycin
Description: cAMP activity assay at the GLP-1 receptor (GLP1R). In kind it is cell-based. The procedure:
Activity of the peptides at the Glucagon receptor (GCGR) and GLP-1 receptor (GLP1R) was measured in a cAMP activity assay.
GCG/GLP-1 receptor co-agonist peptides were dissolved in 100% DMSO (dimethyl sulfoxide) and serially diluted to generate 10 point titrations. The peptide solutions were then transferred into 384-well assay plates (150 nL/well). Assay ready frozen cells expressing human GLP1R or human GCGR were suspended in growth media consisting of DMEM medium (GIBCO®), 10% FBS (GIBCO®), 1×NEAA(GIBCO®), 1×P/S (GIBCO®), 10 ug/mL Blasticidin (GIBCO®) and 200 μg/mL Hygromycin (GIBCO®). […] The cell suspensions (15 μL) were then added to the assay plates containing the peptide solutions (30,000 cells/well for human GCGR; 10,000 cells/well for human GLP1R). The cells were incubated for 1 hour at room temperature in the dark. Production of cAMP was determined using HitHunter™ cAMPXS kits (DiscoverX) following manufacturer protocol. The plates were incubated for overnight at room temperature in the dark. Luminescence was measured using an EnVision Multilabel plate reader (Perkin Elmer). Native GLP-1 and Glucagon (Bachem) are used as control peptides. EC50 values were calculated using uses a 4 parameter logistic fit based on the Levenberg-Marquardt algorithm.

The next test concerns the target T2, human GCGR (Homo sapiens, UniProt P47871).
T2 construct: expressed in transfected cells; growth medium holds Blasticidin and Hygromycin
In words: cAMP activity assay at the Glucagon receptor (GCGR). In kind it is cell-based. As to conditions: for hGCGR/hGLP1R (hTone): ratio of GCGR EC50 to GLP1R EC50. In short, it runs like this:
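Peptides serially diluted from DMSO (10 points) and added to frozen-stock cells bearing human GLP1R (10,000 cells/well) or GCGR (30,000 cells/well), 1 h at RT, dark. EC50 by four-parameter logistic fit of HitHunter cAMPXS luminescence, read following overnight RT incubation.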

Where [1] appears, read: summary statement: EC50 at each of the glucagon and GLP-1 receptors, read-out: EC50 at the GLP-1 receptor.
Where [2] appears, read: summary statement: EC50 at each of the glucagon and GLP-1 receptors, read-out: EC50 at the glucagon receptor.

T2 sequence (P47871 26-477): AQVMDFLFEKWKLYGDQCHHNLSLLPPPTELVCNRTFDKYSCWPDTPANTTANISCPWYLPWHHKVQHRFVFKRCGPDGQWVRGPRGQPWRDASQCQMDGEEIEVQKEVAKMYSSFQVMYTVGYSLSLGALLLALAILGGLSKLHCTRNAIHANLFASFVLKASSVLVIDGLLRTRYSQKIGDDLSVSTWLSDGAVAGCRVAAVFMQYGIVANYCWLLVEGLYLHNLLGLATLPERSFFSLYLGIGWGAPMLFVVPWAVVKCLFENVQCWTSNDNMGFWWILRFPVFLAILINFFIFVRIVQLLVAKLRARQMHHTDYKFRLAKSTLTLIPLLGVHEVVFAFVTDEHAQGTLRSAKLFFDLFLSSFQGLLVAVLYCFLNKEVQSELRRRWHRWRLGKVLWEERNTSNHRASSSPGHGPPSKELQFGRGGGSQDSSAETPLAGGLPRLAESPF
T1 sequence (P43220 24-463): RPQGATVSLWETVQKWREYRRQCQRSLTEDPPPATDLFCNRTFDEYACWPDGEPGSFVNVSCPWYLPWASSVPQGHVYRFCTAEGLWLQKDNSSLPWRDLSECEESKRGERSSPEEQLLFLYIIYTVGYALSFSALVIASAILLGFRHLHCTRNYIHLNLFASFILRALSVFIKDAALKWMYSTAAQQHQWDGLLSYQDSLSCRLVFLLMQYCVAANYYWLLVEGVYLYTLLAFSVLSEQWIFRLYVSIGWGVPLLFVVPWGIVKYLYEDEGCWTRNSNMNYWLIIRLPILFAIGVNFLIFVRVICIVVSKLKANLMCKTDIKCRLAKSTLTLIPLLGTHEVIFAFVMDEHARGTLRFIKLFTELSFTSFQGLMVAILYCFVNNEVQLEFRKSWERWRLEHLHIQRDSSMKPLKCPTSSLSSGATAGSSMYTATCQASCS

Take `CC(C)C[C@H](NC(=O)[C@H](Cc1ccc(O)cc1)NC(=O)[C@H](CCCCN)NC(=O)[C@H](CO)NC(=O)[C@H](Cc1ccc(O)cc1)NC(=O)[C@H](CC(=O)O)NC(=O)[C@H](CO)NC(=O)[C@@H](NC(=O)[C@H](Cc1ccccc1)NC(=O)[C@@H](NC(=O)CNC(=O)[C@H](CCC(N)=O)NC(=O)C(C)(C)NC(=O)[C@@H](N)Cc1c[nH]cn1)[C@@H](C)O)[C@@H](C)O)C(=O)N[C@@H](CC(=O)O)C(=O)N[C@@H](C)C(=O)N[C@@H](CCCNC(=N)N)C(=O)N[C@@H](C)C(=O)N[C@@H](C)C(=O)N[C@@H](CCC(N)=O)C(=O)N[C@@H](CC(=O)O)C(=O)N[C@@H](Cc1ccccc1)C(=O)N[C@H](C(=O)N[C@@H](Cc1ccc(CNC(=O)COCCOCCNC(=O)COCCOCCNC(=O)CC[C@H](NC(=O)CCCCCCCCCCCCCCCCCCC(=O)O)C(=O)O)cc1)C(=O)N[C@@H](Cc1c[nH]c2ccccc12)C(=O)N[C@@H](CC(C)C)C(=O)N[C@@H](CC(C)C)C(=O)N[C@@H](CC(=O)O)C(=O)N[C@H](C(N)=O)[C@@H](C)O)C(C)C` [TP584] (H-H[Aib]QGTFTSDYSKYLDARAAQDFV[Phe(4-CH2NH2)]([AEEA-AEEA-γGlu-C20 diacid])WLLDT-NH2): the EC50 at human GLP1R (setting [1]) and on human GCGR (setting [2]) was less than 5 nM in each case. Besides, the “hGCGR/hGLP1R (hTone)” value at human GCGR is listed as 4.6.
Regarding `CC(C)C[C@H](NC(=O)[C@H](Cc1ccc(O)cc1)NC(=O)[C@H](CCCCN)NC(=O)[C@H](CO)NC(=O)[C@H](Cc1ccc(O)cc1)NC(=O)[C@H](CC(=O)O)NC(=O)[C@H](CO)NC(=O)[C@@H](NC(=O)[C@H](Cc1ccccc1)NC(=O)[C@@H](NC(=O)CNC(=O)[C@H](CCC(N)=O)NC(=O)C(C)(C)NC(=O)[C@@H](N)Cc1c[nH]cn1)[C@@H](C)O)[C@@H](C)O)C(=O)N[C@@H](CC(=O)O)C(=O)N[C@@H](CCC(=O)O)C(=O)N[C@@H](CCCNC(=N)N)C(=O)N[C@@H](C)C(=O)N[C@@H](C)C(=O)N[C@@H](Cc1ccc(CNC(=O)COCCOCCNC(=O)COCCOCCNC(=O)CC[C@H](NC(=O)CCCCCCCCCCCCCCCCCCC(=O)O)C(=O)O)cc1)C(=O)N[C@@H](CC(=O)O)C(=O)N[C@@H](Cc1ccccc1)C(=O)N[C@H](C(=O)N[C@@H](CCC(N)=O)C(=O)N[C@@H](Cc1c[nH]c2ccccc12)C(=O)N[C@@H](CC(C)C)C(=O)N[C@@H](CC(C)C)C(=O)N[C@@H](CCCCN)C(=O)N[C@H](C(N)=O)[C@@H](C)O)C(C)C` [TP586] (H-H[Aib]QGTFTSDYSKYLDERAA[Phe(4-CH2NH2)]([AEEA-AEEA-γGlu-C20 diacid])DFVQWLLKT-NH2; N-terminus assumed), the EC50 on human GLP1R (setting [1]) is less than 5 nM; at human GCGR (cells expressing human GCGR, cAMP production, buffer with or without 20% human serum (not stated which), read-out: GCGR EC50 human) it was 4.95 nM; at human GCGR (setting [2]), less than 5 nM. Also, the “hGCGR/hGLP1R (hTone)” value on human GCGR is listed as greater than 4.0.
On to `CC(C)C[C@H](NC(=O)[C@H](Cc1ccc(O)cc1)NC(=O)[C@H](CCCCN)NC(=O)[C@H](CO)NC(=O)[C@H](Cc1ccc(O)cc1)NC(=O)[C@H](CC(=O)O)NC(=O)[C@H](CO)NC(=O)[C@@H](NC(=O)[C@H](Cc1ccccc1)NC(=O)[C@@H](NC(=O)CNC(=O)[C@H](CCC(N)=O)NC(=O)C(C)(C)NC(=O)[C@@H](N)Cc1c[nH]cn1)[C@@H](C)O)[C@@H](C)O)C(=O)N[C@@H](CC(=O)O)C(=O)N[C@@H](CCC(=O)O)C(=O)N[C@@H](CCCNC(=N)N)C(=O)N[C@@H](C)C(=O)N[C@@H](C)C(=O)N[C@@H](Cc1ccc(CNC(=O)COCCOCCNC(=O)COCCOCCNC(=O)CC[C@H](NC(=O)CCCCCCCCCCCCCCCCC(=O)O)C(=O)O)cc1)C(=O)N[C@@H](CC(=O)O)C(=O)N[C@@H](Cc1ccccc1)C(=O)N[C@H](C(=O)N[C@@H](CCC(N)=O)C(=O)N[C@@H](Cc1c[nH]c2ccccc12)C(=O)N[C@@H](CC(C)C)C(=O)N[C@@H](CC(C)C)C(=O)N[C@@H](CCCCN)C(=O)N[C@H](C(N)=O)[C@@H](C)O)C(C)C` [TP587] (H-H[Aib]QGTFTSDYSKYLDERAA[Phe(4-CH2NH2)]([AEEA-AEEA-γGlu-C18 diacid])DFVQWLLKT-NH2; N-terminus assumed), for which the EC50 at human GLP1R (cells expressing human GLP1R, cAMP production, buffer with or without 20% human serum (not stated which), read-out: GLP1R EC50 human) is 0.41 nM; at human GLP1R (setting [1]), less than 5 nM; at human GCGR (setting [2]), less than 5 nM. For the same compound, the “hGCGR/hGLP1R (hTone)” value at human GCGR is given as greater than 4.1.
As for `CC(C)C[C@H](NC(=O)[C@H](Cc1ccc(O)cc1)NC(=O)[C@H](CCCCN)NC(=O)[C@H](CO)NC(=O)[C@H](Cc1ccc(O)cc1)NC(=O)[C@H](CC(=O)O)NC(=O)[C@H](CO)NC(=O)[C@@H](NC(=O)[C@H](Cc1ccccc1)NC(=O)[C@@H](NC(=O)CNC(=O)[C@H](CCC(N)=O)NC(=O)C(C)(C)NC(=O)[C@@H](N)Cc1c[nH]cn1)[C@@H](C)O)[C@@H](C)O)C(=O)N[C@@H](CC(=O)O)C(=O)NC(C)(C)C(=O)N[C@@H](CCCNC(=N)N)C(=O)N[C@@H](C)C(=O)N[C@@H](C)C(=O)N[C@@H](CCCCNC(=O)COCCOCCNC(=O)COCCOCCNC(=O)CC[C@H](NC(=O)CCCCCCCCCCCCCCCCCCC(=O)O)C(=O)O)C(=O)N[C@@H](CC(=O)O)C(=O)N[C@@H](Cc1ccccc1)C(=O)N[C@H](C(=O)N[C@@H](CCC(N)=O)C(=O)N[C@@H](Cc1c[nH]c2ccccc12)C(=O)N[C@@H](CC(C)C)C(=O)N[C@@H](CCS(C)(=O)=O)C(=O)N[C@@](C)(CC(=O)O)C(=O)N[C@H](C(N)=O)[C@@H](C)O)C(C)C` [TP588] (H-H[Aib]QGTFTSDYSKYLD[Aib]RAAK([AEEA-AEEA-γGlu-C20 diacid])DFVQWL[Met(O2)][αMeD]T-NH2; N-terminus assumed), the EC50 on human GLP1R (setting [1]) and at human GCGR (setting [2]) was less than 5 nM in each case. For the same compound, at human GCGR, the “hGCGR/hGLP1R (hTone)” value amounted to 0.9.
For `CC(C)C[C@H](NC(=O)[C@H](Cc1ccc(O)cc1)NC(=O)[C@H](CCCCN)NC(=O)[C@H](CO)NC(=O)[C@H](Cc1ccc(O)cc1)NC(=O)[C@H](CC(=O)O)NC(=O)[C@H](CO)NC(=O)[C@@H](NC(=O)[C@H](Cc1ccccc1)NC(=O)[C@@H](NC(=O)CNC(=O)[C@H](CCC(N)=O)NC(=O)C(C)(C)NC(=O)[C@@H](N)Cc1c[nH]cn1)[C@@H](C)O)[C@@H](C)O)C(=O)N[C@@H](CC(=O)O)C(=O)N[C@@H](C)C(=O)N[C@@H](CCCNC(=N)N)C(=O)N[C@@H](C)C(=O)N[C@@H](C)C(=O)N[C@@H](CCCCNC(=O)COCCOCCNC(=O)COCCOCCNC(=O)CC[C@H](NC(=O)CCCCCCCCCCCCCCCCCCC(=O)O)C(=O)O)C(=O)N[C@@H](CC(=O)O)C(=O)N[C@@](C)(Cc1ccccc1)C(=O)N[C@H](C(=O)N[C@@H](CCC(N)=O)C(=O)N[C@@H](Cc1c[nH]c2ccccc12)C(=O)N[C@@H](CC(C)C)C(=O)N[C@@H](CCS(C)(=O)=O)C(=O)N[C@@H](CC(=O)O)C(=O)N[C@H](C(N)=O)[C@@H](C)O)C(C)C` [TP590] (H-H[Aib]QGTFTSDYSKYLDARAAK([AEEA-AEEA-γGlu-C20 diacid])D[αMeF]VQWL[Met(O2)]DT-NH2), the EC50 at human GLP1R (setting [1]) and on human GCGR (setting [2]) was less than 5 nM in each case. Besides, on human GCGR, the “hGCGR/hGLP1R (hTone)” value came to 3.1.
